# The source made the active and inactive calls. How the calls were made is not given here.
# System: Broad 7084-01 inhibitor HTS, set 2
# Test: single-concentration hits, screen 7084 set 2 (AID 977613);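 further: host cells are infected with parasite promastigotes that become internalized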
row,Structure (SMILES),active concentration
1,COc1cccc(NC(=O)N2C[C@@H](O)COC[C@H]3O[C@@H](CC(=O)NC4CCC4)CC[C@@H]32)c1,> 10 µM (inactive)
2,CCCC#Cc1ccc([C@H]2[C@H]3CN(C(=O)c4cccnc4)CC(=O)N3[C@H]2CO)cc1,> 10 µM (inactive)
3,O=C(Nc1cccc(Cl)c1)N1C[C@@H]2[C@H](c3ccccc31)[C@@H](CO)N2CC1CCOCC1,> 10 µM (inactive)
4,OC[C@@H]1[C@H](c2ccc(C#CC3(O)CCCC3)cc2)[C@@H]2CN(Cc3cncnc3)CCCCN12,> 10 µM (inactive)
5,Cc1cccc(S(=O)(=O)N2CC[C@@H]3[C@H]2c2cc(-c4ccccc4F)ccc2N(C)[C@H]3CO)c1,> 10 µM (inactive)
6,COc1ccccc1-c1ccc2n(c1=O)C[C@H]1[C@H](CO)[C@@H](C(=O)NCc3ccccc3Cl)N[C@@H]21,> 10 µM (inactive)
7,C/C=C/c1ccc([C@H]2[C@@H](CO)N(CCC(F)(F)F)C23CN(C(=O)COC)C3)cc1,> 10 µM (inactive)
8,COC(=O)c1ccc(CN2CC(=O)N3[C@@H](CO)[C@H](c4ccc(-c5cccnc5)cc4)[C@@H]3C2)cc1,> 10 µM (inactive)
9,COc1cccc(NC(=O)Nc2ccc3c(c2)C(=O)N(C)[C@@H]2CC[C@@H](CC(=O)NCCc4ccccc4)O[C@@H]2CO3)c1,> 10 µM (inactive)
10,COc1ccccc1-c1ccccc1[C@H]1[C@@H](C#N)N(C(=O)CN(C)C)[C@@H]1CO,> 10 µM (inactive)
11,C/C=C/c1ccccc1[C@@H]1[C@H](C#N)N(C(C)=O)[C@H]1CO,> 10 µM (inactive)
12,CC(C)NC(=O)Nc1ccc2c(c1)C(=O)N(C)[C@@H]1CC[C@H](CC(=O)NCc3ccc(F)cc3)O[C@@H]1CO2,> 10 µM (inactive)
13,C/C=C/c1ccccc1[C@@H]1[C@@H](CO)N(C(=O)Cc2ccccn2)[C@H]1C#N,> 10 µM (inactive)
14,CCC(=O)N1CC(=O)N2[C@H](CO)[C@H](c3ccc(-c4ccc(C#N)cc4)cc3)[C@H]2C1,> 10 µM (inactive)
15,COCC(=O)N1CC2(C1)[C@H](c1ccc(-c3ccc(C)cc3)cc1)[C@@H](CO)N2C(C)=O,> 10 µM (inactive)
16,COc1cccc(C(=O)N2C[C@@H]3[C@H](c4ccccc42)[C@H](CO)N3Cc2ccccc2Cl)c1,> 10 µM (inactive)
17,O=C(c1cccnc1)N1CC2(C1)[C@H](c1ccccc1)[C@@H](CO)N2Cc1ccc(Cl)cc1,> 10 µM (inactive)
18,O=C(C[C@H]1CC[C@H]2[C@@H](COC[C@@H](O)CN2Cc2cccc(C(F)(F)F)c2)O1)NCc1ccccc1,> 10 µM (inactive)
19,CC(=O)N1CCCCN2[C@@H](CO)[C@@H](c3ccc(-c4ccccc4)cc3)[C@@H]2C1,> 10 µM (inactive)
20,O=S(=O)(c1cccs1)N1CCCCN2[C@H](CO)[C@@H](c3ccc(/C=C/c4ccccc4)cc3)[C@@H]2C1,> 10 µM (inactive)
21,O=C(C[C@H]1CC[C@@H]2[C@H](COC[C@H](O)CN2Cc2cccc(F)c2)O1)NCc1cccc(F)c1,> 10 µM (inactive)
22,O=C(Cc1ccncc1)N1CC(=O)N2[C@@H](CO)[C@H](c3ccc(Br)cc3)[C@@H]2C1,> 10 µM (inactive)
23,CN1C(=O)c2cc(NS(C)(=O)=O)ccc2OC[C@@H]2O[C@H](CC(=O)NC3CCCCC3)CC[C@H]21,> 10 µM (inactive)
24,O=C1CNC[C@H]2[C@@H](c3ccc(C#CC4CCCCC4)cc3)[C@@H](CO)N12,> 10 µM (inactive)

row,Structure (SMILES),active concentration
1,N#C[C@H]1[C@H](c2ccccc2C2=CCCCC2)[C@@H](CO)N1C(=O)C1CCOCC1,> 10 µM (inactive)
2,CN1c2ccc(Br)cc2[C@H]2[C@H](CCN2C(=O)Nc2ccccc2F)[C@H]1CO,> 10 µM (inactive)
3,CN1C[C@@H]2[C@H](c3ccccc31)[C@H](CO)N2Cc1ccccc1Cl,> 10 µM (inactive)
4,N#C[C@H]1[C@H](c2ccccc2-c2ccccc2)[C@@H](CO)N1C(=O)Cc1ccncc1,> 10 µM (inactive)
5,N#C[C@@H]1[C@H](c2ccccc2C2=CCCCC2)[C@H](CO)N1C(=O)c1cccc(F)c1,> 10 µM (inactive)
6,O=S(=O)(c1ccccc1)N1C[C@@H]2[C@H](c3ccccc31)[C@H](CO)N2Cc1ccccn1,> 10 µM (inactive)
7,O=C(CC1CC1)N1CC(=O)N2[C@@H](CO)[C@H](c3ccc(C#Cc4cccc(F)c4)cc3)[C@@H]2C1,> 10 µM (inactive)
8,O=C(CC1CC1)N1CC(=O)N2[C@H](CO)[C@H](c3ccc(C#Cc4cccc(F)c4)cc3)[C@H]2C1,> 10 µM (inactive)
9,O=C(C[C@@H]1CC[C@@H]2[C@H](COC[C@H](O)CN2C(=O)c2ccc(F)cc2)O1)NCc1cccc(F)c1,> 10 µM (inactive)
10,CC(C)C#Cc1ccc([C@@H]2[C@H](CO)N3C(=O)CN(C(=O)c4ccc5c(c4)OCO5)C[C@@H]23)cc1,> 10 µM (inactive)
11,CN1C(=O)c2cc(NC(=O)c3cccc(F)c3)ccc2OC[C@@H]2O[C@@H](CC(=O)NCC3CCCCC3)CC[C@H]21,> 10 µM (inactive)
12,CN1C(=O)c2cc(NC(=O)c3cnccn3)ccc2OC[C@H]2O[C@H](CC(=O)NCC3CCCCC3)CC[C@@H]21,> 10 µM (inactive)
13,O=C(c1ccccc1F)N1CC(=O)N2[C@H](CO)[C@@H](c3ccc(C#Cc4ccccc4)cc3)[C@H]2C1,> 10 µM (inactive)
14,COc1ccccc1-c1ccccc1[C@@H]1[C@H](C#N)N(C(=O)C2CCOCC2)[C@H]1CO,> 10 µM (inactive)
15,Cc1nn(C)cc1NC(=O)C[C@H]1CC[C@@H]2[C@@H](COc3ccc(NC(=O)C4CCOCC4)cc3C(=O)N2C)O1,> 10 µM (inactive)
16,COc1cccc(S(=O)(=O)N2CC3(CCN(C)CC3)c3c([nH]c4cc(OC)ccc34)[C@@H]2CO)c1,> 10 µM (inactive)
17,O=C(c1ccncc1)N1C[C@@H]2[C@H](c3ccccc31)[C@H](CO)N2Cc1ccccc1F,> 10 µM (inactive)
18,CN(C)CC#Cc1ccc([C@H]2[C@H]3CN(C(=O)Nc4ccccc4F)CCCCN3[C@H]2CO)cc1,> 10 µM (inactive)
19,O=C(Nc1cc(F)ccc1F)N1CCCCN2[C@H](C1)[C@H](c1ccc(C3=CCCCC3)cc1)[C@@H]2CO,> 10 µM (inactive)
20,CCNC(=O)Nc1ccc2c(c1)C(=O)N(C)[C@H]1CC[C@@H](CC(=O)N[C@@H](C)c3ccccc3)O[C@H]1CO2,> 10 µM (inactive)
21,Cc1cccc(S(=O)(=O)N2C[C@H](O)COC[C@@H]3O[C@@H](CC(=O)Nc4ccccc4)CC[C@H]32)c1,> 10 µM (inactive)
22,O=C1CNC[C@H]2[C@@H](c3ccc(C4=CCCC4)cc3)[C@@H](CO)N12,> 10 µM (inactive)
23,O=C(Cc1ccccn1)N1[C@H](CO)[C@@H]2c3ccccc3NC[C@@H]21,> 10 µM (inactive)
24,CCCNC(=O)N1[C@H](C#N)[C@H](c2ccccc2C2=CCCCC2)[C@@H]1CO,> 10 µM (inactive)

row,Structure (SMILES),active concentration
1,COCC(=O)N1[C@H](C#N)[C@@H](c2ccccc2-c2ccccc2F)[C@@H]1CO,> 10 µM (inactive)
2,CC=Cc1ccc2n(c1=O)C[C@H]1[C@H](CO)[C@@H](C(=O)Nc3ccccc3)N(CC3CCCC3)[C@@H]21 (mixture of isomers),> 10 µM (inactive)
3,N#C[C@@H]1[C@H](c2ccccc2-c2ccccc2)[C@@H](CO)N1C(=O)Cc1ccncc1,> 10 µM (inactive)
4,C/C=C/c1ccc([C@@H]2[C@@H](CO)N3C(=O)CN(C(=O)c4ccncc4)C[C@H]23)cc1,> 10 µM (inactive)
5,CCS(=O)(=O)N1CCC2(CC1)CN[C@@H](CO)c1[nH]c3cc(OC)ccc3c12,> 10 µM (inactive)
6,O=C(CN1CCOCC1)N1CCCCN2[C@H](CO)[C@@H](c3ccc(Br)cc3)[C@@H]2C1,> 10 µM (inactive)
7,N#C[C@@H]1[C@@H](c2ccccc2-c2ccccc2F)[C@@H](CO)N1C(=O)Cc1ccccc1,> 10 µM (inactive)
8,COC(=O)c1ccc(CN2CC(=O)N3[C@H](CO)[C@@H](c4ccc(-c5cccnc5)cc4)[C@H]3C2)cc1,> 10 µM (inactive)
9,CN(C)CC(=O)N1[C@H](CO)[C@H](c2ccccc2-c2ccccc2F)[C@@H]1C#N,> 10 µM (inactive)
10,CN1C(=O)c2cc(NC(=O)c3ccc(F)c(F)c3)ccc2OC[C@H]2O[C@@H](CC(=O)N[C@@H]3CCN(Cc4ccccc4)C3)CC[C@H]21,> 10 µM (inactive)
11,C/C=C/c1ccc([C@H]2[C@@H](CO)N3C(=O)CN(C(=O)c4ccncc4)C[C@@H]23)cc1,> 10 µM (inactive)
12,O=S(=O)(c1ccccc1)N1CC[C@@H]2[C@H]1c1cc(Br)ccc1N[C@@H]2CO,> 10 µM (inactive)
13,O=C(c1cccc(F)c1)N1CCCCN2[C@H](C1)[C@@H](c1ccc(C#CC3(O)CCCC3)cc1)[C@@H]2CO,> 10 µM (inactive)
14,O=S(=O)(c1ccccc1)N1CCCCN2[C@H](CO)[C@@H](c3ccc(C#CC4CCCC4)cc3)[C@H]2C1,> 10 µM (inactive)
15,CN1C[C@H](O)COC[C@@H]2O[C@H](CC(=O)NC3CCCC3)CC[C@H]21,> 10 µM (inactive)
16,O=C(C[C@@H]1CC[C@H]2[C@@H](COC[C@@H](O)CN2C(=O)Cc2ccccc2)O1)NC1CCCC1,> 10 µM (inactive)
17,O=C(c1cccc(F)c1)N1CC2(C1)[C@H](c1ccccc1)[C@@H](CO)N2C(=O)C1CCCCC1,> 10 µM (inactive)
18,CN1C(=O)c2cc(NC(=O)Cc3cccs3)ccc2OC[C@H]2O[C@H](CC(=O)N[C@H]3CCN(Cc4ccccc4)C3)CC[C@H]21,> 10 µM (inactive)
19,CCS(=O)(=O)Nc1ccc2c(c1)C(=O)N(C)[C@H]1CC[C@@H](CC(=O)NCCOC)O[C@H]1CO2,> 10 µM (inactive)
20,O=C(Nc1ccc(F)cc1)N1CC(=O)N2[C@H](CO)[C@@H](c3ccc(C#Cc4cccnc4)cc3)[C@H]2C1,> 10 µM (inactive)
21,COc1ccccc1S(=O)(=O)N1CC[C@H]2[C@H](CO)Nc3ccc(-c4ccc(C#N)cc4)cc3[C@H]21,> 10 µM (inactive)
22,O=C([C@@H]1[C@@H](CO)[C@@H]2Cn3c(ccc(C4=CCCC4)c3=O)[C@H]1N2C(=O)c1ccncc1)N1CCOCC1,> 10 µM (inactive)
